The text below walks through data of US9422233B2 (priority 2011, dated 2016).

The structures appear in SMILES notation.

In one assay the target is MMP-9 (Homo sapiens, UniProt P14780). The experiment in a line: biochemical.
The target in a further assay is T1, human recombinant FAAH (Homo sapiens, UniProt O00519).
T1 construct: purchased Cayman Chemical (Ann Arbor, Mich.)
T1 sequence (O00519 1-579): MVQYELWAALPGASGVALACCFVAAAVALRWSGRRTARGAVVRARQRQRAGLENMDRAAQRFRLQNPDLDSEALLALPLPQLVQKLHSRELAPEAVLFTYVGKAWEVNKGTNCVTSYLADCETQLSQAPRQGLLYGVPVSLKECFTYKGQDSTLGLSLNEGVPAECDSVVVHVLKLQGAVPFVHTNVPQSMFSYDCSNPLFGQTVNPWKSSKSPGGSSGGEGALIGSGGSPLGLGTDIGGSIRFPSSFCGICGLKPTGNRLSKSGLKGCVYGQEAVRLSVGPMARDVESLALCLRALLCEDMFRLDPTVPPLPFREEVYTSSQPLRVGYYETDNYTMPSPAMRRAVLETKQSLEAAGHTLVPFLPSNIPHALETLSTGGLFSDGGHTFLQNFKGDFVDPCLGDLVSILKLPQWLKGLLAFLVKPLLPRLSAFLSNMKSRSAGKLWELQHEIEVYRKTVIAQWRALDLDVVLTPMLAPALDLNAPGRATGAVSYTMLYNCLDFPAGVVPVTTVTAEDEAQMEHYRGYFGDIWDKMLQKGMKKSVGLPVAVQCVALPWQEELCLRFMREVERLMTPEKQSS
The experiment in a line: biochemical.

For a further assay, the system named is rabbit corneas. In kind it is cell-based.

Chain of MMP-9 (P14780 94-707, species assumed): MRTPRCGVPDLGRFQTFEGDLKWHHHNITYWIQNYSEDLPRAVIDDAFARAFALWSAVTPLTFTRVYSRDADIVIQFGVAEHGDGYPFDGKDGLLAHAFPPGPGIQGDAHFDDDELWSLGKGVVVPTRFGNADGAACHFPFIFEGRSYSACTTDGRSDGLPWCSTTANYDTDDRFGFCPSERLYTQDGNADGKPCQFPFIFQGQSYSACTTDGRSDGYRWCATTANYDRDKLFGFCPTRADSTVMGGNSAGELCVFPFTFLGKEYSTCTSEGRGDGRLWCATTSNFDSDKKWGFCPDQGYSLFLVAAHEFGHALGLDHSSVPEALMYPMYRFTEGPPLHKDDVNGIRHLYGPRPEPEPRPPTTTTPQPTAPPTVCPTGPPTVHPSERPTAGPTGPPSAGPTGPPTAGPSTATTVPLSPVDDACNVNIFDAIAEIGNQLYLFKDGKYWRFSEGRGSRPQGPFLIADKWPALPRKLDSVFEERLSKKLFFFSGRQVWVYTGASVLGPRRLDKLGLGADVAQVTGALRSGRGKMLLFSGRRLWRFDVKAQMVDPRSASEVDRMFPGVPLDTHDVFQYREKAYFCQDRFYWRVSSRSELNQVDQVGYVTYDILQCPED

Compound `CCCCCCCCCCCCCCCCOC(=O)N(O)Cc1ccc(O)c(OC)c1` [Compound 4a, Hexadecyl-N-hydroxy(4-hydroxy-3-methoxybenzyl)carbamate] displayed an IC50 against MMP-9 of 120 µM.
`CCCCCCCCCCCCOC(=O)N(O)Cc1ccc(O)c(OC)c1` [Compound 4b, Dodecyl-N-hydroxy(4-hydroxy-3-methoxybenzyl)carbamate]: on human recombinant FAAH, the IC50 amounted to 67 µM.
Consider `CCCCCCCCOC(=O)N(O)Cc1ccc(O)c(OC)c1` [Compound 4c, Octyl-N-hydroxy(4-hydroxy-3-methoxybenzyl)carbamate], for which, at human recombinant FAAH, the IC50 is 73 µM.
`COc1cc(CN(O)C(=O)Oc2ccccc2)ccc1O` [Compound 4g, Phenyl-N-hydroxy(4-hydroxy-3-methoxybenzyl)carbamate]: the IC50 at human recombinant FAAH amounted to 10 µM.
Take `CCCCCCCC/C=C\CCCCCCCC(=O)N(O)Cc1ccc(O)c(OC)c1` [Compound 5a, (9Z)—N-Hydroxy-N-[(4-hydroxy-3-methoxyphenyl)methyl]-9-Octadecenamide]: on human recombinant FAAH, the IC50 is 71 µM. Moreover, in the assay on rabbit corneas, the “basement membrane attached post-treatment” value was found to be 70% and the “epithelial-stromal separation (detachment)” value was found to be 30%.
Take `CCCCCCCCC(CCCCCC)C(=O)N(O)Cc1ccc(O)c(OC)c1` (stereo not drawn) [Compound 5c, 2-hexyl-N-hydroxy-N-(4-hydroxy-3-methoxybenzyl)decanamide]: the IC50 against MMP-9 came to 99 µM.
With `CCCCCCCN(O)C(=O)Cc1ccc(O)c(OC)c1` [Compound 10a, N-heptyl-N-hydroxy-2-(4-hydroxy-3-methoxyphenyl)acetamide], the IC50 at human recombinant FAAH was found to be 192 µM.
In turn, `CCCCCCCCN(O)C(=O)Cc1ccc(O)c(OC)c1` [Compound 10b, N-octyl-N-hydroxy-2-(4-hydroxy-3-methoxyphenyl)acetamide] showed an IC50 against MMP-9 of 68 µM. Besides, in the assay on rabbit corneas, the “basement membrane attached post-treatment” value is listed as 85% and the “epithelial-stromal separation (detachment)” value is 15%.
